From patent publication EP4516107A1, “CHITOSAN AND ORGANIC ACID HAVING A PKA OF 4 OR MORE, OR A SALT THEREOF IN BAKERY PRODUCTS” (Mauri Technology B.V., priority 2023, dated 2025)

Key:
P. paneum = test: accelerated shelf-life testing (ASLT): time of appearance (TOA) and growth pattern of P. paneum on inoculated breadcrumbs; type: cell-based, Penicillium paneum; conditions: CalPro 0.3% FWB; tin bread crumb, ±500 spores; Figure 1
Procedure: (§1) Breads were made by mixing the dough ingredients from Table 1. The wt.% for several ingredients are given based on flour weight (Flour Weight Based, FWB). For the prepared recipes the difference with total dry weight is insubstantial. The following breads were prepared: a control without any preservatives, a reference containing 0.3% flour weight based (FWB) calcium propionate (CalPro), and a bread containing 1% chitosan (KitoZyme, Belgium) with number average MW of 15 kDa and degree of deacetylation (DDA) of 70%. The chitosan sample was obtained from cell wall of A. niger (KitoZyme, Belgium). Ingredients were mixed using a spiral mixer for 10 minutes. Afterwards the dough for each trial was divided into three pieces of 520 g, rounded manually, and placed into bread tins. The dough pieces were placed in a proofing cabinet to rise at 40 °C and 80% relative humidity until they reach similar height (fermentation time between 60-70 min). The breads were baked for 22 minutes in a deck oven at 260 (bottom) and 230 (top) °C. [Table 1] Bread recipes
(§2) Following baking, the breads were cooled in a HEPA-filtered chamber for 90 min. One bread was used for pH measurement and two breads were subjected to ASLT.
To perform ASLT, the remaining two breads were sliced to 13 mm slices. […]

A. niger = test: accelerated shelf-life testing (ASLT): time of appearance (TOA) of A. niger on inoculated breadcrumbs; type: cell-based, Aspergillus niger
Procedure: as §1, §2
To perform ASLT, the remaining two breads were sliced to 13 mm slices. The crumb (inner part of breads) of three random slices from each bread were cut out using a cookie cutter (3.2 cm diameter) and placed in sterile 6-well plates (2x breads x 3 slices). Two 6-well plates were prepared per bread type. Each bread piece in a 6-well plate was inoculated with 3 aliquots of ±500 spores ([…]) of either A. niger or P. paneum. Therefore, 18 spots of each mould were inoculated per trial (6 bread piece × 3 aliquots). Freeze-dried spores were used in all experiments. The inoculated breads incubated at room temperature of around 21 °C until visible mould appearance. The appearance of the moulds was imaged by taking photographs. The images were inspected visually, and the TOA was defined as mould appearance in hours after mould inoculation. […]

[1] = cited from earlier work

| Structure (SMILES) | increased TOA of P. paneum compared to control bread without preservatives (P. paneum) | effectiveness against A. niger, CalPro compared to chitosan (A. niger; CalPro 0.3% FWB vs chitosan 1% FWB) | increased TOA of A. niger compared to control bread without preservatives (A. niger; CalPro 0.3% FWB, tin bread crumb, ±500 spores, Figure 1A) | increase in TOA of A. niger compared to control without preservative (A. niger; CalPro alone 0.3% FWB, Figure 2 A-B) | pKa [1] |
| --- | --- | --- | --- | --- | --- |
| CCC(=O)[O-].CCC(=O)[O-].[Ca+2] [CalPro, calcium propionate] | 17% | more effective against A. niger | 80% | approximately 50% | – |
| CC(O)C(=O)O (stereo not drawn) [lactic acid] | – | – | – | – | about 3.85 |
| C/C=C/C=C/C(=O)O [sorbic acid] | – | – | – | – | about 4.76 |
